The numbers were not newly measured in patent US7837990B2, “In vivo expanded NKT cells and methods of use thereof” (The Rockefeller University, priority 2005, dated 2010), which cites them from elsewhere.

The test system of one data set is NKT cells. The note with it: patients with advanced cancer or healthy volunteers.
The subject of the next data set is tumor. Conditions: mouse models.

Take `CCCCCCCCCCCCCCCCCCCCCCCCCC(=O)N[C@@H](CO[C@H]1O[C@H](CO)[C@H](O)[C@H](O)[C@H]1O)[C@H](O)[C@H](O)CCCCCCCCCCCCCC` [KRN-7000, α-galactosyl ceramide]: the “NKT activation in vivo” value with NKT cells is given as “transient NKT activation in some individuals”. Moreover, in the data set on tumor, the anti-tumor effect result is recorded as “tumor regression in several mouse models”.
